Reference: PubChem BioAssay (NCI)
Values joined by “and” are separate entries in the source; they are usually repeats but may differ in a detail not shown here. Identical values can stand only once.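 Tested at 5 concentrations; 48 h exposure; 96-well plates; endpoints linearly interpolated, else capped at highest concentration. The concentration for 50% growth inhibition is given as GI50. TGI marks complete inhibition of growth.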

How the values were obtained:
Test in all cases: growth of human tumour cells (NCI), 48 h
SW-620 colon = test system: SW-620 colon
HCT-15 colon = test system: HCT-15 colon
HOP-62 NSCLC = test system: HOP-62 NSCLC
RXF 393 renal = test system: RXF 393 renal
KM12 colon = test system: KM12 colon
NCI-H522 lung = test system: NCI-H522 lung
SK-MEL-2 melanoma = test system: SK-MEL-2 melanoma
MALME-3M melanoma = test system: MALME-3M melanoma
HT29 colon = test system: HT29 colon
CCRF-CEM leukemia = test system: CCRF-CEM leukemia

For `CCC(c1cccc(O)c1)C(CC)c1cccc(O)c1` (centres undefined), the GI50 (SW-620 colon) was 4.44 µM, the TGI (SW-620 colon) was 16.4 µM and the GI50 (HCT-15 colon) was 3.52 µM. For the same molecule, the TGI (HCT-15 colon) was 14.8 µM, the GI50 (HOP-62 NSCLC) was 4.89 µM and the TGI (HOP-62 NSCLC) was 17.4 µM. The GI50 (RXF 393 renal) was 2.75 µM, the TGI (RXF 393 renal) was 10.6 µM and the GI50 (KM12 colon) was 3.03 µM. It also gave a TGI (KM12 colon) of 13.6 µM, a GI50 (NCI-H522 lung) of 4.9 µM and a TGI (NCI-H522 lung) of 19.3 µM. For the same molecule, the GI50 (SK-MEL-2 melanoma) was 3.96 µM, the TGI (SK-MEL-2 melanoma) was 17.2 µM and the GI50 (MALME-3M melanoma) was 2.1 µM. The TGI (MALME-3M melanoma) was 20 µM, the GI50 (HT29 colon) was 1.86 µM and the TGI (HT29 colon) was 11.2 µM.

With `CN[C@@H]1C[C@H]2O[C@@](C)([C@@H]1OC)n1c3ccccc3c3c4c(c5c6ccccc6n2c5c31)C(=O)N[C@@H]4O` the GI50 (SW-620 colon) was 0.147 µM, the TGI (SW-620 colon) was 0.3 µM and 1.88 µM and the GI50 (HCT-15 colon) was 0.0556 µM. The TGI (HCT-15 colon) was 0.3 µM and 1.33 µM, the TGI (CCRF-CEM leukemia) was 1.39 µM and the GI50 (HOP-62 NSCLC) was 0.0401 µM. For the same molecule, the TGI (HOP-62 NSCLC) was 0.17 µM and 0.334 µM, the GI50 (RXF 393 renal) was 0.00955 µM and the TGI (RXF 393 renal) was 0.0345 µM and < 0.0219 µM. For the same molecule, the GI50 (KM12 colon) was 0.0185 µM, the TGI (NCI-H522 lung) was 0.197 µM and 0.382 µM and the GI50 (SK-MEL-2 melanoma) was 0.0348 µM. The TGI (SK-MEL-2 melanoma) was 0.245 µM and 0.123 µM, the GI50 (MALME-3M melanoma) was 0.0154 µM and the TGI (MALME-3M melanoma) was 0.0589 µM and 0.461 µM. The GI50 (HT29 colon) was 0.0475 µM.

With `CC(=O)O[C@@H]1C2C(=O)OC(=O)C2C2CCC[C@]23O[C@H]13` (some centres undefined) the TGI (SW-620 colon) was greater than 100 µM, the TGI (HCT-15 colon) was greater than 100 µM and the TGI (CCRF-CEM leukemia) was greater than 100 µM. The TGI (HOP-62 NSCLC) was greater than 100 µM, the TGI (RXF 393 renal) was greater than 100 µM and the TGI (KM12 colon) was greater than 100 µM. It also gave a TGI (NCI-H522 lung) greater than 100 µM, a TGI (SK-MEL-2 melanoma) greater than 100 µM and a TGI (MALME-3M melanoma) greater than 100 µM.

Molecule `COc1cc(Br)c(C=Nc2cccc3ccc(OS(=O)(=O)c4cccc([N+](=O)[O-])c4)cc23)cc1OC` has a TGI (SW-620 colon) greater than 100 µM, a TGI (HCT-15 colon) greater than 100 µM and a TGI (CCRF-CEM leukemia) greater than 100 µM. The TGI (HOP-62 NSCLC) was greater than 100 µM, the TGI (RXF 393 renal) was 43.5 µM and the TGI (KM12 colon) was greater than 100 µM. The TGI (NCI-H522 lung) was greater than 100 µM, the TGI (SK-MEL-2 melanoma) was greater than 100 µM and the TGI (MALME-3M melanoma) was greater than 100 µM. For the same molecule, the TGI (HT29 colon) was greater than 100 µM.

With `Nc1ccc(S(=O)(=O)NCc2nccs2)cc1` the TGI (SW-620 colon) was greater than 100 µM, the TGI (HCT-15 colon) was 83.8 µM and the TGI (CCRF-CEM leukemia) was 38.2 µM. It also gave a TGI (HOP-62 NSCLC) greater than 100 µM, a TGI (RXF 393 renal) greater than 100 µM and a TGI (KM12 colon) of 45 µM. It also gave a TGI (NCI-H522 lung) of 35.6 µM, a TGI (SK-MEL-2 melanoma) of 37.9 µM and a TGI (HT29 colon) of 31.3 µM.

`c1cc(CNC2C3CCC(C3)C2c2c[nH]c3ccccc23)cc(CNC2C3CCC(C3)C2c2c[nH]c3ccccc23)c1` (centres undefined) was tested, and the GI50 (SW-620 colon) was 2.11 µM and 0.386 µM, the TGI (SW-620 colon) was greater than 100 µM and the GI50 (HCT-15 colon) was 0.325 µM and 0.301 µM. The TGI (HCT-15 colon) was 1.01 µM and 1.12 µM, the TGI (CCRF-CEM leukemia) was greater than 100 µM and the TGI (KM12 colon) was 4.04 µM. It also gave a TGI (NCI-H522 lung) of 2.76 µM, a TGI (SK-MEL-2 melanoma) of 3.11 µM and a TGI (MALME-3M melanoma) of 3.45 µM. The GI50 (HT29 colon) was 0.331 µM and 0.154 µM.

`CC(C)Oc1cc(O)c2c(c1)OCC=C2CCC(=O)O` was tested, and the TGI (SW-620 colon) was greater than 100 µM, the TGI (HCT-15 colon) was 66.2 µM and the TGI (CCRF-CEM leukemia) was 43.3 µM. The TGI (HOP-62 NSCLC) was greater than 100 µM, the TGI (RXF 393 renal) was greater than 100 µM and the TGI (KM12 colon) was greater than 100 µM. For the same molecule, the TGI (NCI-H522 lung) was 59.3 µM, the TGI (SK-MEL-2 melanoma) was greater than 100 µM and the TGI (HT29 colon) was 53.1 µM.

`COC(=O)C1=C(C(=O)OC)SC(=C(Cl)C(=S)Sc2ccccc2N)S1` showed a GI50 (SW-620 colon) of 55.4 µM, a TGI (SW-620 colon) greater than 100 µM and a GI50 (HCT-15 colon) of 43.8 µM. It also gave a TGI (HCT-15 colon) greater than 100 µM, a GI50 (HOP-62 NSCLC) of 13.5 µM and a TGI (HOP-62 NSCLC) of 33.2 µM. For the same molecule, the GI50 (RXF 393 renal) was 18.1 µM, the TGI (RXF 393 renal) was 38 µM and the GI50 (KM12 colon) was greater than 100 µM. It also gave a TGI (KM12 colon) greater than 100 µM, a GI50 (NCI-H522 lung) of 17.4 µM and a TGI (NCI-H522 lung) of 43.1 µM. It also gave a GI50 (SK-MEL-2 melanoma) of 14.2 µM, a TGI (SK-MEL-2 melanoma) of 43.6 µM and a GI50 (MALME-3M melanoma) greater than 100 µM. The TGI (MALME-3M melanoma) was greater than 100 µM, the GI50 (HT29 colon) was 93.9 µM and the TGI (HT29 colon) was greater than 100 µM.
